Patent publication US20150004110A1, “NOVEL ANTI-AGING AND DEPIGMENTING COSMETIC COMPOSITIONS” (DIVERCHIM, priority 2011, published 2015)

Tests used:
[1] = system: normal human epidermal keratinocytes; assay: Differential expression PCR arrays (RT-qPCR) of keratinocyte differentiation markers; format: cell-based; settings: 10 μM
Procedure: The expression of the specific markers was evaluated by RT-qPCR (reverse transcription quantitative polymerase chain reaction) on messenger RNAs extracted from the cell lawns from each treatment. The transcriptomic profile contains 64 genes selected for their importance in keratinocyte differentiation. The PCR reactions (polymerase chain reactions) were carried out by quantitative PCR with the “Light Cycler” system (Roche Molecular System Inc.) according to the procedures recommended by the supplier. Normal human epidermal keratinocytes were incubated in the presence of compound 1 or a reference with calcium chloride. The expression of the specific markers was evaluated by RT-qPCR on the messenger RNAs extracted from the cell lawns from each treatment.

collagen III = assay: Staining and immunolabelling of skin explant sections: collagen III; format: cell-based, human; settings: treated skin explant sections
Procedure: 1. Preparation of the explants • During abdominoplasty of a person, 45 skin explants were prepared. The explants were put in BEM medium (BIO-EC's Explants Medium) for survival at 37° C. in humid atmosphere, enriched with 5% CO2.
2. Application of the products • The solutions are prepared in DMSO from pure products, in order to obtain final concentrations of […] by incorporating an identical volume of 10 μl in each well and for each treatment. The treatment was carried out in the survival medium on days 0, 1, 2, 5 and 7.
3. Taking samples • On D0, the 3 explants of batch TO were taken and each explant was cut in two. One part was fixed in buffered formol for observation of the general morphology. The other was frozen and stored at −80° C. • On D5 and D9, 3 explants from each batch were taken and treated in the same way.
4. Histological treatment • After fixation for 48 hours in buffered formol, the samples were dehydrated and embedded in paraffin using a Leica 1020 automatic dehydrator. They were embedded according to procedure MO-H-153 using a Leica EG 1160 coating station. Sections of 5 μm were prepared according to procedure MO-H-173 using a Minot-type microtome, Leica RM 2125 and mounted on Superfrost® histological glass slides.
6. Staining and immunolabelling
Immunolabelling will be carried out on sections with the appropriate antibody. […]

PPARα (h) [2] = biological target: T1, PPARα (h) (Homo sapiens, UniProt Q07869); assay: PPARα antagonist effect, coactivator Alpha screen; format: biochemical
T1 sequence (Q07869 1-468): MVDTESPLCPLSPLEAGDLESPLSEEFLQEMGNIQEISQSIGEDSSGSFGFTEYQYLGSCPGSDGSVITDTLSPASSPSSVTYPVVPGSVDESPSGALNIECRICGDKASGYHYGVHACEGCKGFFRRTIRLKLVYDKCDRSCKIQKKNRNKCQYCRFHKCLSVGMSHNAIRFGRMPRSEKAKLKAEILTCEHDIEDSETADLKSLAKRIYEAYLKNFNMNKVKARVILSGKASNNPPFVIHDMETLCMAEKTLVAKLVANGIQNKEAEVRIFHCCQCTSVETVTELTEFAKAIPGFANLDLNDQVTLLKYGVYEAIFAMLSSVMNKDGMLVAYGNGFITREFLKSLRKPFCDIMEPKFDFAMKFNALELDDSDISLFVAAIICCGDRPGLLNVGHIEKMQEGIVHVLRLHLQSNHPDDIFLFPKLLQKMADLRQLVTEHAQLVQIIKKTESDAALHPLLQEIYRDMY
Procedure: (§1) The agonist or antagonist activity of compound 1 on the PPAR receptors was tested by fluorescence techniques. • Material and Methods
(§2) The results are expressed as: • percentage of control specific agonist response (measured specific response/control specific agonist response)×100) and • percentage inhibition of the control specific agonist response (100−((measured specific response)/control specific agonist response)×100)) obtained in the presence of compound 1.
(§3) The EC50 values (concentration at which the maximum specific response is 50%) and the IC50 values (concentration at which the maximum control specific agonist response is inhibited by 50%) are determined by non-linear regression analysis of the concentration-response curves with a mean replicated value using adjustment of Hill's equation
For the antagonists, the apparent dissociation constants (KB) were calculated using the modified Cheng-Prusoff equation

PPARα (h) [3] = biological target: T1, PPARα (h); assay: PPARα competitive radioligand binding assay (Cerep)
Procedure: The affinity of compound 1 for the PPAR receptors (α and γ) was tested by in vitro binding assays (tests carried out by the company Cerep).
This is a nuclear receptor competitive binding assay, between a radiolabelled ligand and the test molecule (here compound 1).
The principle of the technique consists of measuring the displacement of the radioactive ligand bound to the receptor by the test molecule. • Material and Methods
The specific binding of the ligand is defined by the difference between total binding and non-specific binding determined in the presence of an excess of unlabelled ligand.
The results are expressed as: • percentage of control specific binding ((measured specific binding/control specific binding)×100)) • percentage of inhibition of control specific binding ((100−(measured specific binding/control specific binding)) obtained in the presence of compound 1.
The values of IC50 (concentration at which the maximum control specific binding is inhibited by 50%), and the Hill coefficient (nH) are determined by non-linear regression analysis of the curves of competition with a mean replicated value using adjustment of Hill's equation
The inhibition constant (Ki) was calculated using the Cheng-Prusoff equation

PPARδ (h) = biological target: T2, PPARδ (h) (Homo sapiens, UniProt Q03181); assay: PPARδ agonist effect, coactivator Alpha screen; format: biochemical
T2 sequence (Q03181 1-441): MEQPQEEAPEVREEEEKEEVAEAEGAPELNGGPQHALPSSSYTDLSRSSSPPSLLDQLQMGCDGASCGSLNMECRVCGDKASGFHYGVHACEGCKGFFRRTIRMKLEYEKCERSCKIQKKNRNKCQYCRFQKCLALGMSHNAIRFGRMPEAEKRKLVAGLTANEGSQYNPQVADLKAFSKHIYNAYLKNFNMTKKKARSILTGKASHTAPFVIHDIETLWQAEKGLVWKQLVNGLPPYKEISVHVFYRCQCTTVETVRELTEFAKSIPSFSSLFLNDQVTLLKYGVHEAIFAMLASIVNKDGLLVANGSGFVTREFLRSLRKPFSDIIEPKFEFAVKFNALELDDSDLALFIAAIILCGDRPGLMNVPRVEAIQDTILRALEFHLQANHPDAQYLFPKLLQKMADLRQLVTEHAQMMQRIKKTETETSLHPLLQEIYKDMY
Procedure: as §1, §2, §3

- inhibition at 10 µM (PPARα (h) [2]; 10^−5 M, read-out: % Inhibition of control agonist response): 4%
- inhibition at 1 µM (PPARα (h) [2]; 10^−6 M, read-out: % Inhibition of control agonist response): 0%
- inhibition at 0.1 µM (PPARα (h) [2]; 10^−7 M, read-out: % Inhibition of control agonist response): 1%
- PPARα antagonist activity (conclusion in words) (PPARα (h) [2]; 10^−7 to 10^−5 M): not an antagonist
- inhibition at 10 µM (PPARα (h) [3]; 10^−5 M, agonist radioligand, read-out: % Inhibition of control specific binding): 0%
- inhibition at 1 µM (PPARα (h) [3]; 10^−6 M, agonist radioligand, read-out: % Inhibition of control specific binding): -2%
- inhibition at 0.1 µM (PPARα (h) [3]; 10^−7 M, agonist radioligand, read-out: % Inhibition of control specific binding): -5%
- Activity with respect to the PPARα receptor (binding, conclusion in words) (PPARα (h) [3]; 10^−7 to 10^−5 M): no activity
- % Control agonist response (PPARδ (h); 10^−5 M): 2%
- % Control agonist response (PPARδ (h); 10^−6 M): 4%
- % Control agonist response (PPARδ (h); 10^−7 M): 2%
- PPARδ agonist activity (conclusion in words) (PPARδ (h); 10^−7 to 10^−5 M): not an agonist
Structure (SMILES): Oc1ccccc1CCOc1ccc(F)cc1 [Compound 1, 2-[2-(4-fluoro-phenoxy)-ethyl]-phenol]
- Effect on keratinocyte differentiation (conclusion) [1]: pro-differentiating effect
- Stimulation of expression of markers involved in lipid synthesis, antimicrobial defence, innate immunity and cell-cell interactions ([1]; compared with calcium chloride at 1.5 mM): less, but similar to calcium chloride at 1.5 mM
- Collagen III in the papillary dermis (collagen III): very slight densification
